Data: US20240398989A1, “METHODS AND COMPOSITIONS FOR DIAGNOSIS AND TREATMENT OF METABOLIC DISORDERS” (The Broad Institute, Inc., priority 2021, published 2024)
Entries after “also recorded” stand apart in the source; their conditions may differ.

Assays:
[1] = cited from earlier work
[2] = tested on: primary human hepatocytes (PHH); assay: LipocyteProfiler of drug-treated primary human hepatocytes; type: cell-based; details: PHH, 24h oleic acid (0.3 mM)
Description: Primary human hepatocytes (PHH) were purchased from BioIVT. Donor lot YNZ was used in this study. PHH were thawed and immediately resuspended in CP media (BioIVT) supplemented with torpedo antibiotic (BioIVT). Cell count and viability were assessed by trypan blue exclusion test prior to plating. […] Four hours after plating, media was replaced with fresh CP media. After 24 h, media was replaced with fresh CP media or CP media containing oleic acid (0.3 mM) or metformin (5 mM). Hepatocytes were incubated for an additional 24 h prior to processing. Human primary AMSCs and PHH were plated in 96-well CellCarrier plates (Perkinelmer #6005550). […] Primary human hepatocytes were stained after 48 h in culture, and 24h following treatment with oleic acid or metformin. On the respective day of the assay, cell culture media was removed and replaced by 0.5 μM Mitotracker staining solution (1 mM MitoTracker Deep Red stock (Invitrogen #M22426) diluted in culture media) to each well followed by 30 minutes incubation at 37° C.' protected from light. […] PFA was removed and cells were washed once with Hank's Balanced Salt Solution (1×), HBSS (Gibco #14025076). […] Finally, staining solution was removed and cells were washed three times with HBSS. Cells were imaged using a Opera Phenix High content screening system. […] Prior to processing, flat field illumination correction was performed using functions generated from the median intensity across each plate. Nuclei were identified using the DAPI stain and then expanded to identify whole cells using the Phalloidin/WGA and BODIPY stains. Regions of cytoplasm were then determined by removing the Nuclei from the Cell segmentations. Speckles of BODIPY staining were enhanced to assist in detection of small and large individual Lipid objects. For each object set measurements were collected representing size, shape, intensity, granularity, texture, colocalization and distance to neighbouring objects. After LipocyteProfiler (LP) feature extraction data was filtered by applying automated and manual quality control steps. […] Second, every field was assessed visually and fields that were corrupted by experimental induced technical artifacts were removed. Furthermore, blocklisted features (Way, Gregory (2019): Blocklist Features-Cell Profiler. figshare. […] After filtering data were normalised per plate using a robust scaling approach (Pedregosa et al. 2011) that subtracts the median from each variable and divides it by the interquartile range. Individual wells were aggregated for downstream analysis by cell depot and day of differentiation.

[3] = tested on: visceral adipocytes; assay: LipocyteProfiler of isoproterenol-treated vs DMSO-treated visceral adipocytes (AMSCs, day 14); type: cell-based, human; details: for BODIPY-related Granularity (lipid droplet sizes): isoproterenol vs DMSO, across the full granularity size spectra
Description: For imaging, cells were seeded at 10K cells/well in 96-well plates (Cell Carrier, Perkin Elmer #6005550) and induced 4 days after seeding. For RNAseq, cells were seeded at 40K cells/well in 12-well dishes (Corning). […] Adipogenic differentiation was induced by changing culture medium to induction medium. […] Visceral-derived AMSCs were differentiated by further adding 2% FBS as well as 0.1 mM oleic and linoleic acid to the induction and differentiation media. For isoproterenol stimulation experiments, 1 μM isoproterenol was added to the differentiation media and cells treated overnight. Human primary AMSCs and PHH were plated in 96-well CellCarrier plates (Perkinelmer #6005550). AMSCs were differentiated for 14 days and high content imaging was performed at day 0, day 3, day 8 and day 14 of adipogenic differentiation. Primary human hepatocytes were stained after 48 h in culture, and 24h following treatment with oleic acid or metformin. On the respective day of the assay, cell culture media was removed and replaced by 0.5 μM Mitotracker staining solution (1 mM MitoTracker Deep Red stock (Invitrogen #M22426) diluted in culture media) to each well followed by 30 minutes incubation at 37° C.' protected from light. […] PFA was removed and cells were washed once with Hank's Balanced Salt Solution (1×), HBSS (Gibco #14025076). […] Finally, staining solution was removed and cells were washed three times with HBSS. Cells were imaged using a Opera Phenix High content screening system. […] Prior to processing, flat field illumination correction was performed using functions generated from the median intensity across each plate. Nuclei were identified using the DAPI stain and then expanded to identify whole cells using the Phalloidin/WGA and BODIPY stains. Regions of cytoplasm were then determined by removing the Nuclei from the Cell segmentations. Speckles of BODIPY staining were enhanced to assist in detection of small and large individual Lipid objects. For each object set measurements were collected representing size, shape, intensity, granularity, texture, colocalization and distance to neighbouring objects. After LipocyteProfiler (LP) feature extraction data was filtered by applying automated and manual quality control steps. […] Second, every field was assessed visually and fields that were corrupted by experimental induced technical artifacts were removed. Furthermore, blocklisted features (Way, Gregory (2019): Blocklist Features-Cell Profiler. figshare. […] After filtering data were normalised per plate using a robust scaling approach (Pedregosa et al. 2011) that subtracts the median from each variable and divides it by the interquartile range. Individual wells were aggregated for downstream analysis by cell depot and day of differentiation.

[4] = tested on: subcutaneous adipocytes; assay: LipocyteProfiler of isoproterenol-treated vs DMSO-treated subcutaneous adipocytes (AMSCs, day 14); type: cell-based, human; details: subcutaneous adipocytes/AMSCs at day 14, isoproterenol
Description: For imaging, cells were seeded at 10K cells/well in 96-well plates (Cell Carrier, Perkin Elmer #6005550) and induced 4 days after seeding. For RNAseq, cells were seeded at 40K cells/well in 12-well dishes (Corning). […] Adipogenic differentiation was induced by changing culture medium to induction medium. […] Visceral-derived AMSCs were differentiated by further adding 2% FBS as well as 0.1 mM oleic and linoleic acid to the induction and differentiation media. For isoproterenol stimulation experiments, 1 μM isoproterenol was added to the differentiation media and cells treated overnight. Human primary AMSCs and PHH were plated in 96-well CellCarrier plates (Perkinelmer #6005550). AMSCs were differentiated for 14 days and high content imaging was performed at day 0, day 3, day 8 and day 14 of adipogenic differentiation. Primary human hepatocytes were stained after 48 h in culture, and 24h following treatment with oleic acid or metformin. […] Regions of cytoplasm were then determined by removing the Nuclei from the Cell segmentations. […] Second, every field was assessed visually and fields that were corrupted by experimental induced technical artifacts were removed. […]

[5] = 1 year follow up clinical trial

## CC1(C)CCC(CN2CCN(c3ccc(C(=O)NS(=O)(=O)c4ccc(NCC5CCOCC5)c([N+](=O)[O-])c4)c(Oc4cnc5[nH]ccc5c4)c3)CC2)=C(c2ccc(Cl)cc2)C1 [venetoclax]
[1]; [5]
  hyperglycemia, share of patients: 16%
  severe hyperglycemia, share of patients: 5%
[1]; clinical trial
  loss of body weight, share of cases: 11-13%

## CCCCCCCC/C=C\CCCCCCCC(=O)O [oleic acid]
[2]; p 7.21e-07
  BODIPY Texture_AngularSecondMoment: differences
[2]; p=2.3e-11
  lipid droplet number (LargeBODIPYObjects_Count): increased
[2]; p=1.21e-09
  overall lipid content (BODIPY MeanIntensity): increased
[2]; p=2.56e-09
  BODIPY Texture Entropy: differences

## CC(C)NCC(O)c1ccc(O)c(O)c1 (centres unmarked) [isoproterenol]
[3]; 24 hour isoproterenol (1 μM) vs DMSO-treated controls, day 14, p=0.0413
  Mitochondrial Intensity: increases
[3]; 24 hour isoproterenol vs DMSO-treated controls, p=0.0092
  mitochondrial Texture_Entropy: differences; also recorded: increases
[3]; 24 hour isoproterenol vs DMSO-treated controls, p=0.032
  BODIPY Texture Entropy: decrease
[3]; 24 hour isoproterenol vs DMSO-treated controls, p=0.041
  BODIPY MedianIntensity: decrease
[3]
  BODIPY-related Granularity (lipid droplet sizes): decreased
[3]; listed as Isoproterenol
  BODIPY-related Granularity (lipid droplet sizes): reduces
[4]
  effect on morphological profile: no effect
